Each structure is given as a SMILES string.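 1) Cells in 96-well plates. 2) Compound, 48 h, 5 concentrations. 3) Linear interpolation between surrounding doses. 4) Unreached endpoint = highest concentration. GI50 = concentration required for 50% inhibition of growth. TGI: total growth inhibition.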

Test systems include A549 NSCLC; BT-549 breast; COLO 205 colon; MDA-MB-231 breast; MDA-MB-435; NCI-H226 lung; NCI-H460 lung; OVCAR-5 ovarian; SF-268 CNS; SNB-19 CNS.
Common to all, as to experiment: NCI tumour cell line growth inhibition, 48 h

`COc1cc2c(c(O)c1C)C(=O)C(Cl)=CC2=O`: the TGI in the assay with A549 NSCLC worked out at 55.8 µM; in the assay on BT-549 breast, 18.4 µM; in the assay on COLO 205 colon, 4.96 µM; in the assay with MDA-MB-231 breast, 27.8 µM; in the assay on MDA-MB-435, 16.4 µM; in the assay with NCI-H226 lung it was 36.5 µM. Besides, the TGI in the assay on NCI-H460 lung was 63.3 µM; with OVCAR-5 ovarian, 44.3 µM; with SF-268 CNS, 40 µM; in the assay on SNB-19 CNS it was above 86.4 µM.
Turning to `COc1ccc(CN2CCCC(C(=O)c3ccc(C(F)(F)F)cc3)C2)c(O)c1` (stereo not given), the GI50 with A549 NSCLC is 36.4 µM; in the assay with BT-549 breast, 24.3 µM; in the assay on COLO 205 colon it was 19.3 µM; in the assay with MDA-MB-231 breast, 13.6 µM; in the assay on MDA-MB-435, 23.4 µM; with NCI-H226 lung, 35.5 µM. Besides, the GI50 in the assay with NCI-H460 lung is 26.7 µM; in the assay on OVCAR-5 ovarian, 20.2 µM; with SF-268 CNS, 42.1 µM; in the assay with SNB-19 CNS it was 26.3 µM. The TGI is above 100 µM in the assay on A549 NSCLC; 71.9 µM in the assay with BT-549 breast; 36.7 µM in the assay with COLO 205 colon; 32 µM with MDA-MB-231 breast; 83.3 µM with MDA-MB-435; above 100 µM in the assay on NCI-H226 lung. Further, the TGI is above 100 µM in the assay with NCI-H460 lung, 66.1 µM in the assay on OVCAR-5 ovarian, above 100 µM with SF-268 CNS and above 100 µM with SNB-19 CNS.
For `CCOC(=O)c1cnc2[nH]ccn2c1=O`, the TGI in the assay on A549 NSCLC, in the assay on BT-549 breast, in the assay on COLO 205 colon, in the assay with MDA-MB-231 breast, in the assay on MDA-MB-435 and in the assay with NCI-H226 lung was above 10 µM in each case. The TGI with NCI-H460 lung, in the assay with OVCAR-5 ovarian, in the assay on SF-268 CNS and in the assay with SNB-19 CNS was above 10 µM throughout.
Take `CN(C)S(=O)(=O)Nc1ccccn1`: the TGI in the assay with A549 NSCLC, in the assay with BT-549 breast, with COLO 205 colon, in the assay on MDA-MB-231 breast, in the assay with MDA-MB-435 and with NCI-H226 lung was above 100 µM throughout. For the same compound, the TGI in the assay on NCI-H460 lung, in the assay with OVCAR-5 ovarian, with SF-268 CNS and in the assay on SNB-19 CNS was above 100 µM throughout.
As for `CC(=O)/C(=C/n1c(=S)sc2ccccc21)C(=O)Nc1ccccc1C`, the TGI with A549 NSCLC, in the assay with BT-549 breast, in the assay on COLO 205 colon, with MDA-MB-231 breast, in the assay with MDA-MB-435 and with NCI-H226 lung was above 100 µM in each case. The TGI with NCI-H460 lung, in the assay on OVCAR-5 ovarian, in the assay with SF-268 CNS and in the assay on SNB-19 CNS was above 100 µM each time.
As to `Fc1ccc(-c2nn(-c3ccccc3)cc2-c2nc3ccccc3o2)cc1`, the GI50 was 3.46 µM in the assay with A549 NSCLC; 2.97 µM in the assay with BT-549 breast; 15.1 µM in the assay with COLO 205 colon; 8.47 µM in the assay on MDA-MB-231 breast; 1.79 µM with MDA-MB-435; 13.6 µM in the assay with NCI-H226 lung. Moreover, the GI50 was 2.84 µM in the assay with NCI-H460 lung, 20.1 µM in the assay on OVCAR-5 ovarian, 4.53 µM with SF-268 CNS and 4.82 µM in the assay on SNB-19 CNS. For the same compound, the TGI in the assay on A549 NSCLC came to 16.4 µM; in the assay on BT-549 breast, 21.4 µM; in the assay with COLO 205 colon, 30.5 µM; in the assay on MDA-MB-231 breast it was 67.3 µM; in the assay with MDA-MB-435, 3.41 µM; in the assay on NCI-H226 lung, 32 µM. For the same compound, the TGI with NCI-H460 lung was 9.95 µM; with OVCAR-5 ovarian, 77.2 µM; in the assay on SF-268 CNS it was above 100 µM; in the assay on SNB-19 CNS, 53.1 µM.
As to `Cn1c(-c2nonc2N)nc2cnccc21`, the GI50 in the assay with A549 NSCLC is above 25 µM; with BT-549 breast, 17.6 µM; with COLO 205 colon, above 25 µM; in the assay on MDA-MB-231 breast, above 25 µM; with MDA-MB-435, above 25 µM; with NCI-H226 lung, above 25 µM. Besides, the GI50 in the assay on NCI-H460 lung, in the assay with OVCAR-5 ovarian, with SF-268 CNS and with SNB-19 CNS was above 25 µM each time. In addition, the TGI with A549 NSCLC, in the assay on BT-549 breast, in the assay with COLO 205 colon, with MDA-MB-231 breast, in the assay on MDA-MB-435 and in the assay on NCI-H226 lung was above 25 µM throughout. For the same compound, the TGI in the assay with NCI-H460 lung, in the assay on OVCAR-5 ovarian, in the assay with SF-268 CNS and in the assay with SNB-19 CNS was above 25 µM throughout.
Turning to `Cn1cc(C2=C(c3ccc(OC[C@@H](O)CO)cc3)C(=O)NC2=O)c2ccccc21`, the GI50 with A549 NSCLC, in the assay on BT-549 breast, with COLO 205 colon, with MDA-MB-231 breast, in the assay on MDA-MB-435 and in the assay on NCI-H226 lung was above 25 µM throughout. Further, the GI50 in the assay on NCI-H460 lung, in the assay with OVCAR-5 ovarian, in the assay with SF-268 CNS and with SNB-19 CNS was above 25 µM in each case. In addition, the TGI with A549 NSCLC, with BT-549 breast, with COLO 205 colon, in the assay on MDA-MB-231 breast, with MDA-MB-435 and with NCI-H226 lung was above 25 µM in each case. For the same compound, the TGI with NCI-H460 lung, with OVCAR-5 ovarian, in the assay with SF-268 CNS and with SNB-19 CNS was above 25 µM each time.
Regarding `O=[N+]([O-])C(=C(Sc1ccccc1)Sc1ccccc1)C(Cl)=C(Cl)Cl`, the TGI in the assay on A549 NSCLC is 6.59 µM; with BT-549 breast, 4.61 µM; in the assay with COLO 205 colon, 0.697 µM; in the assay on MDA-MB-231 breast, 0.408 µM; with MDA-MB-435, 1.3 µM; in the assay on NCI-H226 lung, 1.31 µM. In addition, the TGI in the assay with NCI-H460 lung was determined as 16.6 µM; in the assay on OVCAR-5 ovarian, 1.48 µM; in the assay with SF-268 CNS, 5.37 µM; in the assay with SNB-19 CNS, 24.8 µM.
As for `N#Cc1cnn2ccn(C3OC(COC(=O)c4ccccc4)C(OC(=O)c4ccccc4)C3OC(=O)c3ccccc3)c12` (stereo not given), the TGI in the assay on A549 NSCLC is above 21.5 µM; in the assay on BT-549 breast, above 100 µM; with COLO 205 colon, above 21.5 µM; in the assay with MDA-MB-231 breast, above 21.5 µM; with MDA-MB-435, above 21.5 µM; in the assay with NCI-H226 lung it was above 21.5 µM. Moreover, the TGI in the assay on NCI-H460 lung, in the assay on OVCAR-5 ovarian, with SF-268 CNS and with SNB-19 CNS was above 21.5 µM in each case.
In the case of `COC(=O)[C@@H](C)C[C@H](Cc1ccccc1)NC(=O)c1nc([C@@H](C[C@H](C(C)C)N(C)C(=O)[C@@H](NC(=O)[C@H]2CCCN2C)C(C)C)OC(C)=O)sc1C`, the GI50 was 0.0207 µM with A549 NSCLC; below 0.0025 µM with BT-549 breast; 0.00275 µM in the assay on COLO 205 colon; 0.00613 µM in the assay with MDA-MB-231 breast; below 0.0025 µM in the assay on MDA-MB-435; 0.16 µM in the assay on NCI-H226 lung. Moreover, the GI50 was below 0.0025 µM in the assay on NCI-H460 lung, 0.0105 µM with OVCAR-5 ovarian, 0.00712 µM in the assay with SF-268 CNS and below 0.0025 µM in the assay with SNB-19 CNS. Also, the TGI with A549 NSCLC was above 25 µM; in the assay with BT-549 breast, 0.145 µM; in the assay with COLO 205 colon, 0.0326 µM; with MDA-MB-231 breast, 4.64 µM; in the assay on MDA-MB-435, below 0.0025 µM; in the assay on NCI-H226 lung, above 25 µM. For the same compound, the TGI with NCI-H460 lung, in the assay with OVCAR-5 ovarian, in the assay with SF-268 CNS and in the assay with SNB-19 CNS was above 25 µM throughout.
In the case of `CC(=O)OCC1OC(n2c(=S)[nH]c(-c3ccccc3)c(C#N)c2=O)C(OC(C)=O)C(OC(C)=O)C1OC(C)=O` (stereo not given), the TGI with A549 NSCLC, with BT-549 breast, in the assay on COLO 205 colon, in the assay on MDA-MB-231 breast, in the assay with MDA-MB-435 and in the assay with NCI-H226 lung was above 100 µM throughout. Besides, the TGI with NCI-H460 lung, with OVCAR-5 ovarian, in the assay on SF-268 CNS and in the assay on SNB-19 CNS was above 100 µM each time.
Take `CCCNC(=O)OCc1c(COC(=O)NCCC)c(-c2ccc(Cl)c(Cl)c2)n2c1CCC2`: the TGI came out at 33.2 µM in the assay on A549 NSCLC; 15.9 µM in the assay on BT-549 breast; 13.2 µM in the assay on COLO 205 colon; 21.9 µM with MDA-MB-231 breast; 29.8 µM in the assay on MDA-MB-435; 7.53 µM with NCI-H226 lung. Besides, the TGI was found to be 17.2 µM with NCI-H460 lung, 20.4 µM in the assay with OVCAR-5 ovarian, 21.5 µM in the assay on SF-268 CNS and 39.1 µM with SNB-19 CNS.
As for `CCOC(=O)c1c(N)n(-c2ccccc2)c(=S)n(-c2ccccc2)c1=O`, the TGI in the assay on A549 NSCLC, in the assay with BT-549 breast, in the assay with COLO 205 colon, in the assay on MDA-MB-231 breast, in the assay with MDA-MB-435 and in the assay on NCI-H226 lung was above 100 µM each time. In addition, the TGI with NCI-H460 lung, in the assay with OVCAR-5 ovarian, with SF-268 CNS and in the assay with SNB-19 CNS was above 100 µM throughout.
Turning to `COc1ccc(NC2Oc3cc4c(cc3C(c3cc(OC)c(OC)c(OC)c3)C2C)OCO4)cc1` (stereo not given), the TGI with A549 NSCLC is above 61.9 µM; with BT-549 breast, above 87.9 µM; in the assay on COLO 205 colon, 2.96 µM; in the assay on MDA-MB-231 breast, above 57.4 µM; with MDA-MB-435, 0.565 µM; in the assay on NCI-H226 lung, 5.58 µM. For the same compound, the TGI with NCI-H460 lung is above 48.5 µM; in the assay on OVCAR-5 ovarian it was above 100 µM; in the assay on SF-268 CNS, above 100 µM; in the assay on SNB-19 CNS, above 100 µM.

The record behind these values is PubChem BioAssay (NCI).
